Results from patent US7138527B2, “Indole derivatives useful for the treatment of diseases” (Pfizer Inc., priority 2002, dated 2006).

molecular target: T1, human β2 adrenergic receptor (Homo sapiens, UniProt P07550); assay: Cell based cAMP assay in CHO cells recombinantly expressing the human β2 adrenergic receptor (cAMP-Flashplate); conditions: CHOhβ2 cells, 1 hour incubation
T1 construct: expressed in transfected cells; host or cells: CHO (Chinese Hamster Ovary) cells, CHOhβ2
Method: According to another alternative, the agonist potency for the […] of the indole derivatives of the formula (1) may also be determined by the measure of the concentration of compound according to the present invention required to produce half maximal effect (EC50) for the β2 receptor.
10 mM/100% DMSO (dimethylsulfoxide) stock of compound is diluted to required top dose in 4% DMSO. This top dose is used to construct a 10-point semi-log dilution curve, all in 4% DMSO. […] Data was expressed as % Isoprenaline response.
Cells were seeded to give about 90% confluency for testing.
25 μl/well each dose of compound was transferred into a cAMP-Flashplate® (NEN, SMP004B), with 1% DMSO as basal controls and 100 nM Isoprenaline as max controls. This was diluted 1:2 by the addition of 25 μl/well PBS. […] Compounds were incubated with 50 μl/well cells for 1 hour. […] Dose-response data was expressed as % Isoprenaline activity and fitted using a four parameter sigmoid fit.

T1 sequence (P07550 whole entry): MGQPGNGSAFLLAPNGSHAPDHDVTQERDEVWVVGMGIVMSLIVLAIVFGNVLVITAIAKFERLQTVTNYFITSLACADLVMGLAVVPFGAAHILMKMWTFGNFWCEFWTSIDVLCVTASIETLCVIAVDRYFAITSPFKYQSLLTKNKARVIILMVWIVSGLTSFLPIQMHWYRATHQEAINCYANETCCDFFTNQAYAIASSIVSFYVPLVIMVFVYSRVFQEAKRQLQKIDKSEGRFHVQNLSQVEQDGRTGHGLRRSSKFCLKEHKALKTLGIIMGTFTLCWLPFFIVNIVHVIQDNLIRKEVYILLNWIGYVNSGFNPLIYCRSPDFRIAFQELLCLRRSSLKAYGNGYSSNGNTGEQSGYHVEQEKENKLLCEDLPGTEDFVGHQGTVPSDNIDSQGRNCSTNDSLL

Point of comparison: `C[C@H](Cc1ccc2[nH]c(C(=O)N(C)Cc3ccccc3)cc2c1)NC[C@H](O)c1ccc(O)c(CO)c1` [Example 22, 5-[(2R)-2-({(2R)-2-Hydroxy-2-(4-hydroxy-3-hydroxymethylphenyl)ethyl}amino)propyl}-N-benzyl-N-methyl-1H-indole-2-carboxamide], EC50 0.02 nM. Against it:
- COc1ccccc1CNC(=O)c1cc2cc(C[C@@H](C)NC[C@H](O)c3ccc(O)c(CO)c3)ccc2[nH]1 [Example 1, 5-[(2R)-2-({(2R)-2-hydroxy-2-[4-hydroxy-3-(hydroxymethyl)phenyl]ethyl}amino)propyl]-N-(2-methoxybenzyl)-1H-indole-2-carboxamide] — the same, 0.02 nM
- C[C@H](Cc1ccc2[nH]c(C(=O)NCc3ccc(C(F)(F)F)cc3)cc2c1)NC[C@H](O)c1ccc(O)c(CO)c1 [Example 2, 5-[(2R)-2-({(2R)-2-hydroxy-2-[4-hydroxy-3-(hydroxymethyl)phenyl]ethyl}amino)propyl]-N-[4-(trifluoromethyl)benzyl]-1H-indole-2-carboxamide] — 40-fold higher, 0.8 nM
- COc1cccc(OC)c1CNC(=O)c1cc2cc(C[C@@H](C)NC[C@H](O)c3ccc(O)c(CO)c3)ccc2[nH]1 [Example 3, N-(2,6-dimethoxybenzyl)-5-[(2R)-2-({(2R)-2-hydroxy-2-[4-hydroxy-3-(hydroxymethyl)phenyl]ethyl}amino)propyl]-1H-indole-2-carboxamide] — 2.5-fold higher, 0.05 nM
- COc1cccc(CNC(=O)c2cc3cc(C[C@@H](C)NC[C@H](O)c4ccc(O)c(CO)c4)ccc3[nH]2)c1 [Example 4, 5-[(2R)-2-({(2R)-2-hydroxy-2-[4-hydroxy-3-(hydroxymethyl)phenyl]ethyl}amino)propyl]-N-(3-methoxybenzyl)-1H-indole-2-carboxamide] — 6-fold higher, 0.12 nM
- COc1cc(O)cc(OC)c1CNC(=O)c1cc2cc(C[C@@H](C)NC[C@H](O)c3ccc(O)c(CO)c3)ccc2[nH]1 [Example 9, 5-[(2R)-2-({(2R)-2-Hydroxy-2-(4-hydroxy-3-hydroxymethylphenyl)ethyl]amino)propyl]-N-(4-hydroxy-2,6-dimethoxybenzyl)-1H-indole-2-carboxamide] — the same, 0.02 nM
- CCn1c(C(=O)NCc2ccc(Cl)cc2)cc2cc(C[C@@H](C)NC[C@H](O)c3ccc(O)c(CO)c3)ccc21 [Example 29, 1-Ethyl-5-[(2R)-2-({(2R)-2-hydroxy-2-(4-hydroxy-3-hydroxymethylphenyl)ethyl}amino)propyl}-N-(4-chlorobenzyl)-1H-indole-2-carboxamide] — 200-fold higher, 3.99 nM
- CC[C@H](Cc1ccc2[nH]c(C(=O)NCc3ccccc3)cc2c1)NC[C@H](O)c1ccc(O)c(CO)c1 [Example 36, 5-[(2R)-2-({(2R)-2-Hydroxy-2-(4-hydroxy-3-hydroxymethylphenyl)ethyl]amino)butyl}-N-benzyl-1H-indole-2-carboxamide] — 19-fold higher, 0.38 nM
